Legend:
Assay type in all cases: cell-based
[1] = system: Human renal proximal tubular cells HK2; experiment: inhibitory effect in human renal fibrosis cell model (TGFβ1-stimulated), qPCR of fibrosis gene mRNA; conditions: for therapeutic effect on renal fibrosis: overall conclusion from the HK2 cell model; for difference from the positive drug hydronidone group: renal fibrosis cells, hydronidone 20µmol
Experimental: (§1) In embodiments, the method for detecting the inhibitory effect of micropeptide OFMP in a fibrotic cell model by the real-time fluorescence quantitative PCR method comprises: • counting and inoculating human hepatic stellate cells LX-2, human non-small cell lung cancer cell line A549, and human renal proximal tubular cells HK2 to culture plates; • except for the control group, adding 10nmol of recombinant human TGFβ1 stimulating factor to stimulate continuously for 24 h; • extracting and collecting the total RNA of the cell samples with a TRIzol reagent, and then reverse-transcribing the extracted total RNA using a reverse transcription reagent, and performing qPCR reaction using the qPCR premix solution; and • detecting mRNA expression levels of genes Colla1 and α-SMA using a real-time fluorescence quantitative PCR instrument.
(§2) According to the TRIzol reagent manual of Life Invitrogen, the total RNA of the cell samples was extracted and collected. Then, the purity and concentration of the extracted RNA was quantified by a NanoDrop 2000 ultra micro spectrophotometer. The integrity of the extracted RNA was inspected and ensured by agarose gel electrophoresis. A reverse transcription reagent HiScript® III RT SuperMix for qPCR (+ genomic DNA wiper) was used to perform reverse transcription on the extracted total RNA and a qPCR premix liquid ChamQ SYBR qPCR Master Mix was used to perform qPCR reaction.
(§3) After the above components were mixed well, the following procedure proceeded: initial denaturation 95°C 30s, 95°C 10s, 60°C 30s, 50 cycles. After the qPCR reaction was completed, the Cq value of each sample well was collected. The maximum error of the Cq values among the three duplicate wells of each sample should be no more than 0.5 to ensure data accuracy.
(§4) Human renal proximal tubular cells HK2 were cultured in a 37°C 5% CO2 cell incubator until the cell density was above 80%, and the cells were digested and collected by trypsin, and centrifuged. After the supernatant was discarded, the cells were counted by a cell counter, inoculated to six-well cell culture plates, and put into a 37°C 5% CO2 cell incubator to continue the culturing. The culture medium was sucked out after the cells were cultured for 24 h, a 2‰ DMSO solvent was added as a negative control, 20µmol of hydronidone was added as a positive control, 40µmol, 10µmol, 2.5µmol, 625nmol and 156nmol of the synthetic peptide OFMP were added in the equal proportion for other groups as administration groups, 10nmol of recombinant human TGFβ1 stimulating factor was added to other groups except the control groups half an hour later to continuously stimulate for 24 h, and the mRNA expression levels of genes Colla1, TGFβ1 and CTGF in OFMP3178, and the mRNA expression levels of genes Colla1 and α-SMA in OFMP2067 and OFMP1080 were detected.

[2] = system: human hepatic stellate cells LX-2; experiment: inhibitory effect in human liver fibrosis cell model (TGFβ1-stimulated), qPCR of fibrosis gene mRNA; conditions: for difference from the positive drug hydronidone group: liver fibrosis cells, hydronidone 20µmol; for therapeutic effect on liver fibrosis: overall conclusion from the LX-2 cell model
Experimental: as §1, §2, §3
as §4, with “Human hepatic stellate cells LX-2, human non-small cell lung cancer cell line A549, and human” for “Human”

[3] = system: Human non-small cell lung cancer cell line A549; experiment: inhibitory effect in human pulmonary fibrosis cell model (TGFβ1-stimulated), qPCR of fibrosis gene mRNA; conditions: for therapeutic effect on pulmonary fibrosis: overall conclusion from the A549 cell model; for difference from the positive drug Nintedanib group: pulmonary fibrosis cells, Nintedanib 2µmol
Experimental: as §1, §2, §3
as §4, with “non-small cell lung cancer cell line A549 was” for “renal proximal tubular cells HK2 were”, “2µmol” for “20µmol”, “Nintedanib” for “hydronidone”

[4] = different concentrations (40µmol to 156nmol), 10nmol TGFβ1, 24 h, compared with the model group

Substance	mRNA expression level of gene Colla1 in renal fibrosis cells [1, 4]	therapeutic effect on renal fibrosis [1]	difference from the positive drug hydronidone group [1]	mRNA expression level of gene Colla1 in renal fibrosis cells ([1]; treatment condition 40µmol-24h)	mRNA expression level of gene Colla1 in liver fibrosis cells [2, 4]	difference from the positive drug hydronidone group [2]	therapeutic effect on liver fibrosis [2]	mRNA expression level of gene Colla1 in liver fibrosis cells ([2]; treatment condition 40µmol-24h)	mRNA expression level of gene Colla1 in pulmonary fibrosis cells [3, 4]	therapeutic effect on pulmonary fibrosis [3]	difference from the positive drug Nintedanib group [3]	mRNA expression level of gene Colla1 in pulmonary fibrosis cells ([3]; treatment condition 40µmol-24h)	mRNA expression level of gene α-SMA in liver fibrosis cells ([2]; treatment condition 40µmol-24h)	also measured
OFMP3178 (MSLSICTLCLLPRRQEYCILKVPGLLFFLITNDLGSSDHSCLPRVKVPFKALLPGEL)	significantly decreased	good therapeutic effect	a significant difference	most significant decrease	significantly decreased	a significant difference	good therapeutic effect	most significant decrease	significantly decreased	good therapeutic effect	a significant difference	most significant decrease	–	mRNA expression level of gene CTGF in renal fibrosis cells [1, 4]: significantly decreased; mRNA expression level of gene TGFβ1 in renal fibrosis cells [1, 4]: significantly decreased; mRNA expression level of gene CTGF in renal fibrosis cells ([1]; treatment condition 40µmol-24h): most significant decrease; mRNA expression level of gene TGFβ1 in renal fibrosis cells ([1]; treatment condition 40µmol-24h): most significant decrease; mRNA expression level of gene CTGF in liver fibrosis cells [2, 4]: significantly decreased; mRNA expression level of gene CTGF in liver fibrosis cells ([2]; treatment condition 40µmol-24h): most significant decrease; mRNA expression level of gene CTGF in pulmonary fibrosis cells [3, 4]: significantly decreased; mRNA expression level of gene TGFβ1 in pulmonary fibrosis cells [3, 4]: significantly decreased; mRNA expression level of gene CTGF in pulmonary fibrosis cells ([3]; treatment condition 40µmol-24h): most significant decrease; mRNA expression level of gene TGFβ1 in pulmonary fibrosis cells ([3]; treatment condition 40µmol-24h): most significant decrease
OFMP2067 (MHLDHSDPITRDHMGSVMAQVRQKLFQFLQAEPHNSLGKAARRLSLMLHGLVTPSLP)	significantly decreased	good therapeutic effect	a significant difference	most significant decrease	significantly decreased	a significant difference	good therapeutic effect	most significant decrease	significantly decreased	good therapeutic effect	a significant difference	most significant decrease	most significant decrease	mRNA expression level of gene α-SMA in renal fibrosis cells [1, 4]: significantly decreased; mRNA expression level of gene α-SMA in renal fibrosis cells ([1]; treatment condition 40µmol-24h): most significant decrease; mRNA expression level of gene α-SMA in liver fibrosis cells [2, 4]: significantly decreased; mRNA expression level of gene α-SMA in pulmonary fibrosis cells [3, 4]: significantly decreased; mRNA expression level of gene α-SMA in pulmonary fibrosis cells ([3]; treatment condition 40µmol-24h): most significant decrease
OFMP1080 (MRHRLVSLSVTSCVTPAAGTRRGSAGAVGTNTGRGGPPPHALRASGEQSPAQGVS)	significantly decreased	good therapeutic effect	–	most significant decrease	significantly decreased	not a significant difference	good therapeutic effect	most significant decrease	significantly decreased	good therapeutic effect	–	–	most significant decrease	mRNA expression level of gene Colla1 in pulmonary fibrosis cells ([3]; treatment condition 10µmol-24h): most significant decrease

Reference: patent EP4793281A1, “ORGAN FIBROSIS-RELATED MICROPEPTIDE (OFMP) AND USE THEREOF” (Nanjing Anji Biological Technology Co., Ltd., priority 2023, dated 2025)
